In patent US8034778B2, “Neuroprotective compounds and uses thereof” (Ever Neuro Pharma GmbH, priority 2006, dated 2011):
Where two headings read alike, the source gives them in different places. Residues, ends and D or L forms follow the SMILES beside them. No end group written: not given here.

Tested on: telencephalon neurons from 9-day-old chicken embryos (cortical neurons)
Assay type: cell-based
Description: 1.1.2. Assay Conditions: • Assay: 2% low serum cell culture assay • Cell source: telencephalon neurons from 9-day-old chicken embryos (Lohman Brown hybrid) • Nutrition medium: EMEM with 1 g glucose/l, 2% FCS, 0.01% gentamycin sulfate and 2 mM L-glutamine • Group size: 4 independent experiments were performed (n =8 for DLHW (SEQ ID NO:2), NIVTPR (SEQ ID NO:3), HGFLPR (SEQ ID NO:4), NMVPFPR (SEQ ID NO:5) and the test matrix) • Evaluation of the effects: • MTT viability assay; absorbance (OD) measured with a plate reader • Duration of one single experiment: • 8 days
(§1) 2.2.1.1. Test Item (DLHW) (SEQ ID NO:2): • Vehicle for dilution: test matrix (6.18 mg/ml NaCl and 0.35 mg/ml KCl) • Application mode: once at the 1st day • Application period: for the whole experiment, i.e. 8 days, from 1st day onwards • Concentrations: 5.6, 11.25, 22.5, 45, 90, 180, 360 and 720 μg/ml • Administration volume: 0.625, 1.25, 2.5, 5, 10, 20, 40, 80 μl/ml medium
as §1, with “2.2.1.2.” for “2.2.1.1.”, “(NIVTPR)” for “(DLHW)”, “NO:3):” for “NO:2):”
as §1, with “2.2.1.3.” for “2.2.1.1.”, “(HGFLPR)” for “(DLHW)”, “NO:4):” for “NO:2):”
as §1, with “2.2.1.4.” for “2.2.1.1.”, “(NMPFPR)” for “(DLHW)”, “NO:5):” for “NO:2):”
2.3. Assay Conditions • Cell culture assays: 2% low serum assay • Cell source: telencephalon neurons from 9-day-old chicken embryos (Lohman Brown hybrid) • Nutrition medium: EMEM with 1 g glucose/l, 2% FCS, 0.01% gentamycin sulfate and 2mM L-glutamine • Group size: 4 independent experiments were performed (n =8for DLHW (SEQ ID NO:2) ant and the test matrix; n =224 for controls) • Evaluation of the effects: MTT viability assay; absorbance (OD) measured with a plate reader • Duration of one single experiment: 8 days
The analytical procedure used in the present example is a 2% low serum assay using isolated avian cortical neurons. With this in vitro cell culture assay the neuroprotective and/or neurotrophic potential of compounds can be evaluated by determining the viability of living neurons after a distinct time period in culture. The method for measuring the amount of viable neurons is the MTT-assay.
To the isolated nerve cells the peptides or test matrix were added once, i.e. at the first day. The 8 concentrations comprising dose range was between 5.6, 11.25, 22.5, 45, 90, 180, 360 and 720 μg/ml medium; the volumes applied were 0.625, 1.25, 2.5, 5, 10, 20, 40, 80 μl/ml medium.
Neuronal viability of cultures was determined with the MTT-assay using a plate-reader (570 nm). The MTT-assay is a sensitive assay measuring the mitochondrial dehydrogenase activity in viable cells only. It is performed according to the method described by Mosmann, J. Immunol. Meth, 1983, 55-63. This assay is based on the reduction of yellow MTT (3-(4,5-dimethylthiazol-2-yl)-2,5,diphenyl tetrazolium bromide), to dark blue formazan crystals by mitochondrial dehydrogenases (succinate dehydrogenase). Since this reaction is catalysed in living cells only the assay can be used for the quantification of cell viability. […]

[1] = 5.6 μg/ml, added at 1DIV, 8 days
[2] = 11.25 μg/ml, added at 1DIV, 8 days
[3] = 22.5 μg/ml, added at 1DIV, 8 days
[4] = 45 μg/ml, added at 1DIV, 8 days
[5] = 90 μg/ml, added at 1DIV, 8 days
[6] = 180 μg/ml, added at 1DIV, 8 days
[7] = 360 μg/ml, added at 1DIV, 8 days
[8] = 720 μg/ml, added at 1DIV, 8 days
[9] = Lohman Brown hybrid, chicken, 8 days, 5.6 μg/ml
[10] = Lohman Brown hybrid, chicken, 8 days, 11.25 μg/ml
[11] = Lohman Brown hybrid, chicken, 8 days, 22.5 μg/ml
[12] = Lohman Brown hybrid, chicken, 8 days, 45 μg/ml
[13] = Lohman Brown hybrid, chicken, 8 days, 90 μg/ml
[14] = Lohman Brown hybrid, chicken, 8 days, 180 μg/ml
[15] = Lohman Brown hybrid, chicken, 8 days, 360 μg/ml
[16] = Lohman Brown hybrid, chicken, 8 days, 720 μg/ml

Row | Compound | viability of cortical neurons, MTT, mean optical density (OD) [1] | viability of cortical neurons, MTT, mean optical density (OD) [2] | viability of cortical neurons, MTT, mean optical density (OD) [3] | viability of cortical neurons, MTT, mean optical density (OD) [4] | viability of cortical neurons, MTT, mean optical density (OD) [5] | viability of cortical neurons, MTT, mean optical density (OD) [6] | viability of cortical neurons, MTT, mean optical density (OD) [7] | viability of cortical neurons, MTT, mean optical density (OD) [8] | viability of cortical neurons, mean in % (control is 100%) [9] | viability of cortical neurons, mean in % (control is 100%) [10] | viability of cortical neurons, mean in % (control is 100%) [11] | viability of cortical neurons, mean in % (control is 100%) [12] | viability of cortical neurons, mean in % (control is 100%) [13] | viability of cortical neurons, mean in % (control is 100%) [14] | viability of cortical neurons, mean in % (control is 100%) [15] | viability of cortical neurons, mean in % (control is 100%) [16] | also measured
1 | CC(C)C[C@H](NC(=O)[C@@H](N)CC(=O)O)C(=O)N[C@@H](Cc1c[nH]cn1)C(=O)N[C@@H](Cc1c[nH]c2ccccc12)C(=O)O [DLHW] (H-DLHW-OH; N-terminus and C-terminus assumed) | 0.062 OD | 0.062 OD | 0.085 OD | 0.136 OD | 0.217 OD | 0.272 OD | 0.254 OD | 0.257 OD | 97.85% | 97.68% | 134.51% | 213.12% | 341.82% | 429.54% | 401.23% | 406.75% | maximum effect (viability, control 100%) [15]: 430%; effect beyond control (added at 1DIV, MTT method): 430%; effective dose range (added at 1DIV, MTT method): 45 to 702 µg/mL; maximum effect in % (added at 1DIV, MTT method): 430%; most effectice concentration (added at 1DIV, MTT method): 180 µg/mL; effect above the control level (in higher concentrations (than that of the maximum effect)): ~300%
2 | HGFLPR [HGFLPR] | 0.068 OD | 0.069 OD | 0.069 OD | 0.067 OD | 0.070 OD | 0.067 OD | 0.064 OD | 0.058 OD | 100.07% | 101.16% | 101.16% | 98.95% | 102.25% | 99.14% | 94.53% | 85.71% | 
3 | NIVTPR [NIVTPR] | 0.068 OD | 0.069 OD | 0.068 OD | 0.068 OD | 0.066 OD | 0.064 OD | 0.060 OD | 0.058 OD | 98.92% | 100.32% | 98.70% | 98.75% | 95.12% | 92.28% | 86.60% | 83.13% | 
4 | NMVPFPR [NMVPFPR] | 0.061 OD | 0.060 OD | 0.057 OD | 0.057 OD | 0.056 OD | 0.055 OD | 0.055 OD | 0.057 OD | 98.06% | 95.77% | 90.76% | 90.55% | 89.54% | 87.76% | 87.79% | 91.24% | 
